Results taken from the NIST ThermoML archive (doi:10.1016/j.tca.2018.01.022).
± gives the expanded uncertainty stated by the source.

Settings: 298 K; 101.33 kPa; Crystal; Buoyancy - hydrostatic balance

mass density	Structure (SMILES)
2656 ± 310 kg/m3	[Al] [aluminum]
9999 ± 600 kg/m3	[Mo] [molybdenum]
